Publication PMC10308239, “Light-driven Proton Pumps as a Potential Regulator for Carbon Fixation in Marine Diatoms” (Microbes and Environments, 2023)

How the values were obtained:
PngR = target: T1, PngR (Pseudo-nitzschia granii, UniProt A0A0A7RP02); test: HPLC of retinal oxime isomers from purified holoprotein; absorption spectrum; type: binding; details: covalent; chromophore; light- and dark-adapted samples; 50 mM Tris-HCl pH 7.0, 1 M NaCl, 0.05% DDM
T1 construct: gene RHO; full length, E. coli codon-optimised, C-terminal His6 tag (pET21a NdeI-XhoI), expressed in E. coli BL21(DE3) with all-trans retinal, purified in DDM

Asp91 (position 91, …) = test: UV-vis; details: room temperature (approximately 25°C), 1 M NaCl, Buffer A: 50 mM Tris-HCl, 0.05% (w/v) DDM, pH adjusted by addition of HCl, Dark/ground (unphotolysed) state with all-trans retinal, measured under room light, DDM-solubilised, folded (reversibility checked)

Row | Molecule | HPLC of retinal oxime isomers from purified holoprotein; absorption spectrum (PngR) | pKa (Asp91 (position 91, …))
1 | CC1=C(/C=C/C(C)=C/C=C/C(C)=C/C=O)C(C)(C)CCC1 [all-trans retinal] | In light- and dark-adapted samples, the isomeric state of retinal was predominantly all-trans | –
2 | PngR (Pseudo-nitzschia granii rhodopsin, xanthorhodopsin-like light-driven proton pump) (Pseudo-nitzschia granii) (protein) MVTANQFTIVYDVLSFSLATMMATTIFLWMRVPSVHEKYKSALIISGLVTFIAAYHYLRIFNSWTEAYEWTAEGELSATASPFNDAYRYMDWLLTVPLLLIEIILVMKLPADESRSKATTLGIASAAMIAIGYPGELAMSDDSLGTRWVYWIGAMLPFLYIVQTLLVGLNDATQSEADPAIRDLIKGVQWWTVISWCTYPVVYVFPMMGITGTNAIVGIQLGYSVSDIISKCGVGLMIYQITIAKSYALKKGNEETPLYG | – | approximately 5.0
